# In ChEMBL document CHEMBL1132606, “Use of a pharmacophore model for the design of EGFR tyrosine kinase inhibitors: isoflavones and 3-phenyl-4(1H)-quinolones” (J Med Chem, 1999):
# Columns and labels:
# [1] = target: T1, Epidermal growth factor receptor (Homo sapiens, UniProt P00533); test: Inhibition of Epidermal growth factor receptor
# [2] = target: Protein kinase C alpha type (Homo sapiens, UniProt P17252); test: Inhibition of Protein kinase C alpha
# [3] = target: Tyrosine-protein kinase ABL (Homo sapiens, UniProt P00519+P42684); test: Inhibition of v-Abl tyrosine kinase; format: protein assay
# [4] = target: Platelet-derived growth factor receptor (Homo sapiens, UniProt P09619+P16234); test: Inhibition of Platelet-derived growth factor receptor-dependent phosphorylation; format: protein-complex assay
# [5] = target: T1, Epidermal growth factor receptor; test: Inhibition of Epidermal growth factor receptor-dependent phosphorylation
# [6] = target: Proto-oncogene tyrosine-protein kinase Src (Homo sapiens, UniProt P12931); test: Inhibition of p60 c-Src tyrosine kinase
# Proto-oncogene tyrosine-protein kinase Src, sequence (P12931 2-536 limits assumed): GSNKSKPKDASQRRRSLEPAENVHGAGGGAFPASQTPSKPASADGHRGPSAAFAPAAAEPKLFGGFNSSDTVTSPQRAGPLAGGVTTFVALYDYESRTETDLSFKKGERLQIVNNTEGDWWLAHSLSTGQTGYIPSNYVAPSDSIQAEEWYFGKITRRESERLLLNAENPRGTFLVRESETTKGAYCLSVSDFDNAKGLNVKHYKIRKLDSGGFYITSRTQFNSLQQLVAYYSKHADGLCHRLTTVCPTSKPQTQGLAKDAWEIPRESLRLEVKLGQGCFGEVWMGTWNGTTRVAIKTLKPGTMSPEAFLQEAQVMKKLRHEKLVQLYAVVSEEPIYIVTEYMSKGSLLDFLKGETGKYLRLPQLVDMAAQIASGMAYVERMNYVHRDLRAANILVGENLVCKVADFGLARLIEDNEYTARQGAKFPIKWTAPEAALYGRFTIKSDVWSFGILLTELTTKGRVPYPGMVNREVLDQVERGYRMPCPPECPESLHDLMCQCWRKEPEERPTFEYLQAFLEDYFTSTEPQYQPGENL
# T1 sequence (P00533 whole entry): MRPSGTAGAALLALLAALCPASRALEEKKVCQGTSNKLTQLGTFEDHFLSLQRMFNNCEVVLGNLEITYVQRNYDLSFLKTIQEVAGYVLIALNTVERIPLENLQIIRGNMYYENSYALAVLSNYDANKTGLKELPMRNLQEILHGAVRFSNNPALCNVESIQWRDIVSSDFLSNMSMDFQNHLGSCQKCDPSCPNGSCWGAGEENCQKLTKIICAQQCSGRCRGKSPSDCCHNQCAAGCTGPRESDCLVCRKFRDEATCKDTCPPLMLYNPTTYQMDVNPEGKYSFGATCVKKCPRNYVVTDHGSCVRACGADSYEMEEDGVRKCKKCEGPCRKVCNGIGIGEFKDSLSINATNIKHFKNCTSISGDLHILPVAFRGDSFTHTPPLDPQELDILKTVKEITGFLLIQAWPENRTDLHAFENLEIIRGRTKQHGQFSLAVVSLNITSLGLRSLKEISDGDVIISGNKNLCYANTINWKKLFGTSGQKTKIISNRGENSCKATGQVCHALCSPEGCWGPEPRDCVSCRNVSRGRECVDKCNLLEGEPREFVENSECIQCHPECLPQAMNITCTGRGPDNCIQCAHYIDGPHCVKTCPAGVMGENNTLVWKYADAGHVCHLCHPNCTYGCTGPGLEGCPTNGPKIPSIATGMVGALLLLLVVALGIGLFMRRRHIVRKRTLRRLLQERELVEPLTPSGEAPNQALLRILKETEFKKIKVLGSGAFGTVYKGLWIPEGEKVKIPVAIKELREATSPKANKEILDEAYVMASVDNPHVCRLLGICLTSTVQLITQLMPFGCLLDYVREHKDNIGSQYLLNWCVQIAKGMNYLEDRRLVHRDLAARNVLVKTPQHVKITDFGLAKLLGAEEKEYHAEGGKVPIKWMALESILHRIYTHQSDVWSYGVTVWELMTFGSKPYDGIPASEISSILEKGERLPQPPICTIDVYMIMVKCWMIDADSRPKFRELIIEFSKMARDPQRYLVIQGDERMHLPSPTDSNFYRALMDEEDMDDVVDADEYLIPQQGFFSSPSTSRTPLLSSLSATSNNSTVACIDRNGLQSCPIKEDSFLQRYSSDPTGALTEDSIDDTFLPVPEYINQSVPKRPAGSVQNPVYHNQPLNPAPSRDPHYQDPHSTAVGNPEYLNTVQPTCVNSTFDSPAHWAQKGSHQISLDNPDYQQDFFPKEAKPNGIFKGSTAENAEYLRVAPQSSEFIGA
Structure (SMILES),IC50 [1] [µM],IC50 [2] [µM],IC50 [3] [µM],IC50 [4] [µM],IC50 [5] [µM],IC50 [6] [µM]
O=c1c(-c2cccc(Cl)c2)coc2cc(O)ccc12,58.8,–,–,–,–,–
Oc1c(-c2cccc(Cl)c2)cnc2ccccc12,> 100,–,–,–,–,–
Oc1cc(O)c2c(O)c(-c3cccc(Cl)c3)cnc2c1,0.008,> 100,> 10,> 10,2,8
COc1cc(O)c2c(=O)c(-c3cccc(Cl)c3)cn(CCc3ccccc3)c2c1,4,–,–,> 10,1.5,–
O=c1c(-c2cccc(Cl)c2)coc2cc(O)cc(O)c12,0.095,> 100,20,> 10,12,> 100
O=c1c(-c2ccc(O)cc2)coc2cc(O)cc(O)c12 [GENISTEIN],–,> 100,> 10,–,–,> 10
COc1cc2ncnc(Nc3cccc(Cl)c3)c2cc1OC [TYRPHOSTIN AG-1478],–,> 100,–,> 10,–,2.7
COC(=O)Cn1cc(-c2cccc(Cl)c2)c(=O)c2c(O)cc(OC)cc21,–,> 100,> 10,> 10,–,> 10
COc1cc(OC)c2c(=O)c(-c3cccc(Cl)c3)coc2c1,500,–,–,> 10,> 100,–
COc1cc(O)c2c(O)c(-c3cccc(Cl)c3)cnc2c1,0.038,> 100,> 100,> 10,6,> 100
COc1cc(O)c2c(=O)c(-c3cccc(Cl)c3)cn(C)c2c1,0.17,> 100,> 10,> 10,3,> 10
COc1cc(O)c2c(=O)c(-c3cccc(Cl)c3)coc2c1,1.27,> 100,> 100,> 10,> 100,> 100
